Columns and labels:
[1] = Spectrophotometric evidence of interactions between KM-34 and Fe2+; format: physicochemical; settings: 100 μM KM-34; FeCl2 50, 100 and 200 μM; pH 7.4
Experimental: FIG. 4. Maximum absorption data on UV-VIS (200-500 nm) of the 100 μM KM-34 in a mixture of 10 mM phosphate buffer (KH2PO4/ KOH) pH 7.4 and absolute ethanol 14:1 (v:v) and The absorbance in the presence of FeCl2 (50, 100 and 200 μM) dissolved in 10mM HCL.
In order to verify the existence of possible interactions between KM-34 and Fe2+ (through modifications in their spectra), the following results were obtained:
This could indicate possible interactions between Fe2+ and KM-34 where the ion is stabilized at Fe3+ by unsaturated ligands due to the stabilization of the larger crystalline field from an electron configuration d6 (Fe2+) to a d5 (Fe3+) (Hider et al., 1981, Hider et al., 1983). This justifies the response obtained in the oxidative degradation test of DR where it was observed that the KM-34 in these conditions seems to act more as a coordinator of Fe2+ than as a .OH scavenger.

rat brain homogenate = test: Spontaneous or Fe3+/AA-induced lipid peroxidation (POL) in rat brain homogenate; format: biochemical; settings: 37° C 1 hour, MDA
Experimental: FIG. 5. Effects of KM-34 (0.01-100 μM) on spontaneous lipid peroxidation and e induced by 100 mM FeCl3 and 100 mM AA. The control contains absolute ethanol instead of KM-34. The samples were incubated at 37° C for 1 hour and then the MDA levels were quantified by thiobarbituric acid (ATB) and the absorbance was determined at 532 nm. Values are expressed as the mean ± SD (n=3). *P<0.05 with respect to the control.
The brain homegenate is rich in phospholipids, which undergo spontaneous or induced autoxidation by the presence of FeCl3 and AA, where the latter is oxidized at the expense of the metal being reduced and thus the ion is available to catalyze the Fenton-Habber reaction-Weiss (Hiroi et al., 2005; Kooncumchoo, 2005).

[2] = test system: animals damaged with 6-OHDA; test: 6-OHDA Parkinson's model, vertical exploratory activity; format: in vivo, rats
[3] = test system: scopolamine cognitive deficit; test: Scopolamine-induced dementia, T maze spontaneous alternation; format: in vivo, rats; settings: 2, 4 and 8 mg/kg p.o., 1 hour before scopolamine 1 mg/kg i.p.
Experimental: FIG. 11. Effect of KM-34 on spatial memory. In the T labyrinth, KM-34 (2, 4 and 8 mg/k, p.o) was given 1 hour prior to scopolamine (1 mg/kg, i.p.). Data are expressed as mean ± SD (n=7, per group) of the percentage of spontaneous alternation. For statistical anal sis ANOVA and Tukey's multiple comparison test were performed. Different letters differ from each other for p<0.01. In in vivo models, KM-34 was administered orally (p.o) at a rate of 4 mL/kg body weight. Doses of 2, 4 and 8 mg/kg were evaluated as acute administration 90 minutes before the start of behavioral tests. For administration the compound was suspended in carboxymethylcellulose (CMC) 0.05%. Scopolamine bromide was dissolved in 0.9% saline solution and administered intraperitoneally as a single dose (1 mg/kg, 4 mL/kg body weight) 30 minutes prior to the initiation of the behavioral tests. The animals were randomly selected and divided into 5 experimental groups with different treatments (n=7, per group): control group (CMC and saline), vehicle group (CMC and scopolamine 1 mg/kg), KM-34 (KM-34 4 mg/kg and scopolamine 1 mg/kg) and (KM-34 8 mg/kg and scopolamine 1 mg/kg). […] The series of entries to each arm was recorded and the percentage of alternation was calculated as: (number of alternations performed/total of possible alternations)×100. […]

CC1(C)OC(=O)C(=Cc2ccc(O)c(O)c2)C(=O)O1 [KM-34, 5-[(3,4-dihydroxyphenyl)methylidene]-2,2-dimethyl-1,3-dioxane-4,6-dione]
Absorbance of KM-34 at absorption maxima 262, 345 and 472 nm in presence of Fe2+ [1]: is modified as the concentration of the ferrous ion increases
Concentration significantly inhibiting Fe3+/AA-induced POL (rat brain homogenate; induced by FeCl3 and AA): > 10 µM
Concentration significantly inhibiting spontaneous POL (rat brain homogenate; spontaneous lipid peroxidation): higher than 0.1 μM
Vertical exploratory behavior ([2]; 0.5 and 1 mg doses, vs damaged animals): did not show statistically significant differences
Vertical exploratory behavior ([2]; maximum dose 2 mg/Kg): statistically significant differences with respect to damaged animals
Spatial memory, percentage of spontaneous alternation in T maze [3]: significantly (p<0.01) protected from spatial memory damage

— patent publication US10722491B2, “Phenol compound and combination of same with a benzodiazepine fused to 1,4-dihydropyridine for treating diseases of the central nervous and vascular systems” (UNIVERSIDAD DE LA HABANA, priority 2016, dated 2020)
